The values that follow come from publication PMC3164098, “C-Terminal Substitution of MDM2 Interacting Peptides Modulates Binding Affinity by Distinctive Mechanisms” (PLoS ONE, 2011).

Ends that are not written are not given here.

For experiment [1], the target named is T1, hexahistidine tagged MDM2 (18–125) (Homo sapiens, UniProt Q00987).
T1 construct: DNA encoding residues Q18 to N125 of HDM2; made in house; host or cells: E. coli BL21(DE3)
The experiment is described as follows: Isothermal titration calorimetry (ITC) of ligands against MDM2. It is filed as binding. Particulars: PBS pH 7.4, 0.05% TWEEN20, 1% DMSO; for Kd: 10 or 20 µM MDM2 in cell. On the procedure: DNA encoding residues Q18 to N125 of HDM2 were cloned as a NdeI/BamHI fragment into pET19b (Novagen). Recombinant clones carrying the correct insert were identified by DNA sequencing. Plasmid from the identified clone was introduced into E. coli BL21(DE3) and protein production in LB medium was induced with IPTG (1 mM) when the cell density reached OD600 between 0.4 and 0.6. Induced cells were grown at room temperature for 5 h, harvested, and then resuspended in buffer A (50 mM Tris pH 8.0, 10% sucrose). After cell disruption and centrifugation, supernatant was loaded onto a Ni-nitrilotriacetic acid (NTA) column and washed with 5 column volumes of 0.3 M NaCl, 50 mM Tris-HCl pH 8.0, 1 mM DTT. […] The protein was further purified by cation-exchange chromatography (Pharmacia Mono S 5/5, 1 ml/min, 50 mM Tris-HCl pH 7.0, 1 mM DTT) with a 1 M NaCl gradient.
ITC experiments were conducted in a VP-ITC Unit (MicroCal, Northampton, MA). […] All titrations were carried out in 1% DMSO. […] All peptides used were weighed out as solids and dissolved in DMSO. The stock peptide solutions were diluted to their working concentrations in the buffer used for dialysis of the protein. DMSO was carefully added to the MDM2 solution in the VP-ITC cell to buffer match it to the peptide solution. The titration experiments were performed at 20°C with an initial 2 µl injection with duration of 4 s, followed by 28 10 µl injections with a duration of 7.1 s. The spacing between each injection was 150 s. The stirring speed during the titration was 290 rpm. Data was analyzed using Microcal Origin software by fitting to a single-site binding model. Correction for the enthalpy of ligand dilution was carried out by subtracting a linear fit from the last three data points of the titration, after the interaction had reached saturation.
In general terms: In ITC the heat of successive injections is recorded.

In experiment [2] the test system is N-terminal domain of MDM2. The conditions noted are these: peptide of residues 12–30 of WT p53, binding to N-terminal domain of MDM2; ref 10 (Zondlo et al.); cited from earlier work. The text has this: The molecular interaction of the binding of the MDM2 N-terminal domain to the p53 N-terminus (TA domain) is well understood. Several high-resolution crystal and NMR structures in complex with a variety of peptides and small molecules have been elucidated, [8]. These structural studies indicate that the residues F19, W23 and L26 of the TA domain of p53 are critical for binding to MDM2. Indeed most peptides, peptidomimetics and small molecules that have been developed have indeed emerged as a result of mimicking these interactions. However, it has been known for some time that the other ...

Where [3] appears, read: 293 K (20°C), single-site binding model.

T1 sequence (Q00987 18-125): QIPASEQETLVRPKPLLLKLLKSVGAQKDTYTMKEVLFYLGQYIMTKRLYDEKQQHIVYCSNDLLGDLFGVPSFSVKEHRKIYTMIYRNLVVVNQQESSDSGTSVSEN

In the case of MPRFMDYWEGLA-NH2 [12/1Ala], binding in experiment [1] (setting [3]) was characterised by a dissociation constant (Kd) of 47.2 ± 11.1 nM.
Still for that read-out and setting: for `CC(C)C[C@H](NC(=O)[C@H](CC(=O)O)NC(=O)[C@H](CO)NC(=O)[C@H](Cc1ccccc1)NC(=O)[C@@H](NC(=O)[C@H](CCC(=O)O)NC(=O)[C@@H](N)CCC(N)=O)[C@@H](C)O)C(=O)N[C@@H](Cc1c[nH]c2ccccc12)C(=O)N[C@@H](CCCCN)C(=O)N[C@@H](CC(C)C)C(=O)N[C@@H](CC(C)C)C(=O)N[C@H](C(N)=O)[C@@H](C)O` [p53Thr] the value was 38.8 ± 7.43 nM; for `CC(C)C[C@H](NC(=O)[C@H](CC(C)C)NC(=O)[C@H](CCCCN)NC(=O)[C@H](Cc1c[nH]c2ccccc12)NC(=O)[C@H](CC(C)C)NC(=O)[C@H](CC(=O)O)NC(=O)[C@H](CO)NC(=O)[C@H](Cc1ccccc1)NC(=O)[C@@H](NC(=O)[C@H](CCC(=O)O)NC(=O)[C@@H](N)CCC(N)=O)[C@@H](C)O)C(=O)N[C@@H](CC(N)=O)C(N)=O` [P53 Asn], 168 ± 9.24 nM; for MPRFMDYWEGLN-NH2 [12/1], 240 ± 53.8 nM.
For “P27S: P27S substitution in a peptide corresponding to residues 12–30 of the WT p53 sequence (Zondlo et al.) (PPLSQETFSDLWKLLSENN; not fully specified (C-terminus); UniProt P04637 12-30, looked up, variant P27S)”, the “fold improvement in Kd over the wild type sequence” value in experiment [2] is on record as approximately 200 fold.
With `CC(C)C[C@H](NC(=O)[C@H](CC(C)C)NC(=O)[C@H](CCCCN)NC(=O)[C@H](Cc1c[nH]c2ccccc12)NC(=O)[C@H](CC(C)C)NC(=O)[C@H](CC(=O)O)NC(=O)[C@H](CO)NC(=O)[C@H](Cc1ccccc1)NC(=O)[C@@H](NC(=O)[C@H](CCC(=O)O)NC(=O)[C@@H](N)CCC(N)=O)[C@@H](C)O)C(=O)N[C@@H](CO)C(N)=O` [p53 Ser], in experiment [1] (setting [3]), the equilibrium dissociation constant (Kd) came to 75.8 ± 10.4 nM.
Same read-out and setting: for MPRFMDYWEGLP-NH2 [12/1Pro] the value was 213 ± 36.6 nM; for `CSCC[C@H](NC(=O)[C@H](Cc1ccccc1)NC(=O)[C@H](CCCNC(=N)N)NC(=O)[C@@H]1CCCN1C(=O)[C@@H](N)CCSC)C(=O)N[C@@H](CC(=O)O)C(=O)N[C@@H](Cc1ccc(O)cc1)C(=O)N[C@@H](Cc1c[nH]c2ccccc12)C(=O)N[C@@H](CCC(=O)O)C(=O)NCC(=O)N[C@@H](CC(C)C)C(=O)N[C@@H](CO)C(N)=O` [12/1Ser], 18.8 ± 5.03 nM; for MPRFMDYWEGLT-NH2 [12/1Thr], 22.9 ± 4.21 nM.
Same read-out and setting: with `CC(C)C[C@H](NC(=O)[C@H](CC(C)C)NC(=O)[C@H](CCCCN)NC(=O)[C@H](Cc1c[nH]c2ccccc12)NC(=O)[C@H](CC(C)C)NC(=O)[C@H](CC(=O)O)NC(=O)[C@H](CO)NC(=O)[C@H](Cc1ccccc1)NC(=O)[C@@H](NC(=O)[C@H](CCC(=O)O)NC(=O)[C@@H](N)CCC(N)=O)[C@@H](C)O)C(=O)N[C@@H](C)C(N)=O` [p53 Ala] the figure was 112 ± 17.9 nM.
Consider “Nutlin [Nutlin Racemic, reference compound]”, for which the ΔG in experiment [1] (binding free energy calculated from the Kd using ΔG = −RTlnKa, 293 K) was -8.97 ± 0.15 kcal/mol. Also, in experiment [1] (enthalpy of binding, 293 K (20°C), single-site binding model), the ΔH was -6.10 ± 0.16 kcal/mol. Besides, the TΔS in experiment [1] (entropy of binding, 293 K (20°C)) came to 2.88 kcal/mol.

The Kd is the constant that tells how readily two partners part at equilibrium. Low values mean tighter binding, high ones weaker binding.
